Data on 1 molecule can be found in patent publication US10053455B2, “Diazaspiroalkaneone-substituted oxazole derivatives as spleen tyrosine kinase inhibitors” (AB SCIENCE, priority 2014, dated 2018).

The test system of one data set is TNFα. Briefly: FcεRI and Kit-induced TNFα cytokine release in BMMCs. The format is cell-based, C57BL/6J mice. As to the method:
Murine bone marrow mast cells (BMMCs) are obtained by flushing bone marrow cells from the femurs of C57BL/6J mice, and then cultured for 3-4 weeks in RPMI containing mouse recombinant IL-3 (30 ng/ml). Cells were sensitized overnight in IL3-depleted culture medium with 0.1-0.2 μg/ml anti-DNP-IgE (Sigma-Aldrich D8406). Cells were preincubated with inhibitors for 30 min, and then stimulated with 10 ng/ml antigen (Ag) and/or Stem Cell Factor (SCF) (30 ng/ml). The cells were incubated for 6 h. The supernatants were harvested, and the cytokine content measured using CISBIO IL6 and TNFα HTRF assay (cat#63ADKEBU043 and 6FMTNPEB respectively).

Data set [1] relates to rat neonatal cardiac myocytes. Briefly: Intracellular ROS in rat cardiomyocytes (CM-H2DCFDA). The format is cell-based. The note with it: 10 μM, 8 hours. As to the method:
2×10^3 human cardiomyocytes (Promocell C-12810) or 4×10^4 rat neonatal cardiac myocytes (R-CM-561 Lonza) were seeded per well of a 96-well plate (black wall for fluorimetry usage (655090 Greiner Bio one)) 24 hours before drug treatment. Treatment was initiated by addition of a drug solution for a 10 μM final concentration. Doxorubicin was used at 5 μM as positive control for the induction of ROS. After 8 hours treatment with drugs, cells were loaded with 10 μM of CM-H2DCFDA (C6827 Invitrogen) for 1 hour, followed by 2 washes in PBS. CM-H2DCFDA is a membrane permeable reagent that can be enzymatically converted to dichlorodihydrofluorescein (DCF) in the presence of ROS. Fluorescent DCF was detected using a fluorescence spectrophotometer (BMG Labtech) with excitation of 485 nm and emission of 560 nm. The results were expressed as a relative percent of DCF-fluorescence in control cells.
Monitoring drug-induced increase in the production of reactive oxygen species (ROS) in cardiomyocyte may be important to predict the cardiotoxic side effects of a drug (Table 11). The production of ROS in human and rat cardiomyocytes was studied following 8 hours drug treatment at concentration of 10 μM. The results were expressed as a percent relative to the production of ROS induced by the cardiotoxic chemotherapeutic agent doxorubicin (100%).

For another data set, the target named is c-Ret WT (Homo sapiens (Human), UniProt P07949). Briefly: HTRF kinase assay, c-Ret WT. The format is biochemical. The note with it: enzymatic determination. The method, then:
(§1) Most of the kinases tested in this study were cloned, expressed and purified in the facilities of the inventors. They were expressed either as N-terminus hexahistidine-, hexahistidine-asparagine- or GST-tagged enzymes in a baculovirus or in a Colibacille expression system. Remaining enzymes (JAKs) were purchased from Millipore or Proqinase. For each enzyme, steady state kinetic parameters were determined and validated with known inhibitors.
(§2) The analysis of the effect of compounds on kinase activity was assessed with the HTRF® KinEASE assay (Cisbio International), an immuno-assay based on the quantification of the level of phosphorylation of a biotinylated peptide substrate using anti-phospho-specific antibody labeled with Europium (Eu^3+) cryptate. This assay comprises two steps: —an enzymatic step, during which the peptide substrate, the kinase, ATP, Mg^2+ and/or Mn^2+ are incubated with varying concentration of drug (from 0 to 10 μM); —a detection step, at the end of the reaction (stopped by addition of EDTA which chelates Mg^2+), the antibody anti-phospho peptide-Eu^3+ (emission 620 nm) and streptavidin XL-665 (emission 665 nm) are added to the reaction mix. […] Results are expressed in delta fluorescence (DF) unit defined as follow DF %=[(ratio−ratio blank)/(ratio blank)]*100, where ratio=(665 nm/620 nm)*10^4. […]
(In TR-FRET formats the signal depends on donor and acceptor labels being close together.)

The target in another data set is Jak3 (Homo sapiens (Human), UniProt P52333). Briefly: HTRF kinase assay, Jak3. The note with it: enzymatic determination. The format is biochemical. The method, then: as §1, §2
Another data set concerns the target Jak2 (Homo sapiens (Human), UniProt O60674). Briefly: HTRF kinase assay, Jak2. The format is biochemical. The conditions noted are these: enzymatic determination. The method, then:
as §1, §2

Another data set concerns Myeloperoxidase (MPO). Briefly: Myeloperoxidase activity in K/BxN arthritis model. Type of data set: in vivo, C57Bl/6 mice. As to the method: K/B×N serum pools were prepared from arthritic mice at 8 weeks of age. The mice were pre-treated with SYK inhibitors by two per os administration for two days before induction of arthritis. Arthritis was induced in the C57Bl/6 mice (8 weeks of age) by intraperitoneal injection (7.5 μl serum per g weight) at days 0 and 2.
The treatment with SYK inhibitors was continued for 13 days. The control mice were injected with solvent before the induction of arthritis and during the course of the disease. The compounds were dissolved in a solution containing 10% of Tween 80 and 10% 1-2 propandiol. It was prepared before administration.
MPO activity was determined following published protocol (American Journal of Pathology, (2000), 156 (6):2169-2177). Briefly, tissue samples were weighed and suspended in 50 mmol/L potassium phosphate buffer (pH 6.0) containing 5 mg/ml hexadecyltrimethylammonium bromide (Sigma Chemical Co.) at a ratio of 50 mg tissue to 1 ml of buffer. […] Using a microtiter plate scanner, 200 μl of the reaction mixture (containing 16.7 mg of o-dianisidine (Sigma Chemical Co.), […] of distilled H2O, […] of potassium-phosphate buffer, and 50 μl of 1% H2O2) was added to each well containing 7 μl of sample in a standard 96-well plate and three absorbance readings at 5 min intervals at 450 nm were recorded.

The next data set deals with c-Met (Homo sapiens (Human), UniProt P08581). Briefly: HTRF kinase assay, c-Met. The format is biochemical. The note with it: enzymatic determination. The method, then:
as §1, §2

The target of another data set is BCR-ABL (Homo sapiens, UniProt P00519). Put plainly: Cell-based proliferation assay on BaF3 model, BCR-ABL. As to the method:
Cell-based proliferation and viability assay CellTiter-Bleue cell-based survival/proliferation assay (Promega G8080) was performed on BaF3 models. […] Cells were grown for 48-72 h at 37° C. and then incubated with 10 μl/well of Promega CellTiter-Bleue reagent for 4 h at 37° C. The amount of formazan dye formed was quantified by its absorbance at 450 nm using a scanning multiwell spectrophotometer (POLARstar Omega, BMG labtech, France). A blank well without cells was used as a background control for the spectrophotometer and all assays were performed in duplicates and the experiments were repeated at least twice.

Each structure is given as a SMILES string. Where two headings read alike, the source gives them in different places.

Sequence of Jak2 (O60674 whole entry): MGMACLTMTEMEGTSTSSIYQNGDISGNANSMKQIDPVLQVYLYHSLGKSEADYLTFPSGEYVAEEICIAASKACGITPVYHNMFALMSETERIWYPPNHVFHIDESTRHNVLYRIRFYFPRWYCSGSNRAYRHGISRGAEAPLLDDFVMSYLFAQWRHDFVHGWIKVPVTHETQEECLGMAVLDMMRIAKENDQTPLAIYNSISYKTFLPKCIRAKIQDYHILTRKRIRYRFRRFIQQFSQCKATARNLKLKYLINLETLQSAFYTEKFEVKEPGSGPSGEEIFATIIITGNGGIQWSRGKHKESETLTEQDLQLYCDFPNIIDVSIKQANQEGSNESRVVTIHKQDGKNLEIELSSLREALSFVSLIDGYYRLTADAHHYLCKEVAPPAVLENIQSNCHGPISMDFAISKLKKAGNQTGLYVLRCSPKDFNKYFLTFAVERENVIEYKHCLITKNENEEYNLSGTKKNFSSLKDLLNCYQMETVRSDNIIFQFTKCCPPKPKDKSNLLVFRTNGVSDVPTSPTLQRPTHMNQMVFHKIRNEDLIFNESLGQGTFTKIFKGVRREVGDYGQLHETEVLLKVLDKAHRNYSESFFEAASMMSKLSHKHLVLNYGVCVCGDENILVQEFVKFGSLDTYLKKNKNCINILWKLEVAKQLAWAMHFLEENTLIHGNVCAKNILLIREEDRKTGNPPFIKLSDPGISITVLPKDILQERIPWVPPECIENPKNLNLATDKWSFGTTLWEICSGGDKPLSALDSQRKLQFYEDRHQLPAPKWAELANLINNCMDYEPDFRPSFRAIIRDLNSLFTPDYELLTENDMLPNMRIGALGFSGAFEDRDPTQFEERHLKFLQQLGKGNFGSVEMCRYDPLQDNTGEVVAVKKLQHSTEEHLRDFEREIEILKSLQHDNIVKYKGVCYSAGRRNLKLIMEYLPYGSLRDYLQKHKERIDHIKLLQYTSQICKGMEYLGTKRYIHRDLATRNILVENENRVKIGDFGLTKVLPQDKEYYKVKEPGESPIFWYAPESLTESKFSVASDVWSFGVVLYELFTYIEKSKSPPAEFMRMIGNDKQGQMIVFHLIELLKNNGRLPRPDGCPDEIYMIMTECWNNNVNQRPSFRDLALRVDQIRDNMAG
Sequence of c-Ret WT (P07949 29-1114): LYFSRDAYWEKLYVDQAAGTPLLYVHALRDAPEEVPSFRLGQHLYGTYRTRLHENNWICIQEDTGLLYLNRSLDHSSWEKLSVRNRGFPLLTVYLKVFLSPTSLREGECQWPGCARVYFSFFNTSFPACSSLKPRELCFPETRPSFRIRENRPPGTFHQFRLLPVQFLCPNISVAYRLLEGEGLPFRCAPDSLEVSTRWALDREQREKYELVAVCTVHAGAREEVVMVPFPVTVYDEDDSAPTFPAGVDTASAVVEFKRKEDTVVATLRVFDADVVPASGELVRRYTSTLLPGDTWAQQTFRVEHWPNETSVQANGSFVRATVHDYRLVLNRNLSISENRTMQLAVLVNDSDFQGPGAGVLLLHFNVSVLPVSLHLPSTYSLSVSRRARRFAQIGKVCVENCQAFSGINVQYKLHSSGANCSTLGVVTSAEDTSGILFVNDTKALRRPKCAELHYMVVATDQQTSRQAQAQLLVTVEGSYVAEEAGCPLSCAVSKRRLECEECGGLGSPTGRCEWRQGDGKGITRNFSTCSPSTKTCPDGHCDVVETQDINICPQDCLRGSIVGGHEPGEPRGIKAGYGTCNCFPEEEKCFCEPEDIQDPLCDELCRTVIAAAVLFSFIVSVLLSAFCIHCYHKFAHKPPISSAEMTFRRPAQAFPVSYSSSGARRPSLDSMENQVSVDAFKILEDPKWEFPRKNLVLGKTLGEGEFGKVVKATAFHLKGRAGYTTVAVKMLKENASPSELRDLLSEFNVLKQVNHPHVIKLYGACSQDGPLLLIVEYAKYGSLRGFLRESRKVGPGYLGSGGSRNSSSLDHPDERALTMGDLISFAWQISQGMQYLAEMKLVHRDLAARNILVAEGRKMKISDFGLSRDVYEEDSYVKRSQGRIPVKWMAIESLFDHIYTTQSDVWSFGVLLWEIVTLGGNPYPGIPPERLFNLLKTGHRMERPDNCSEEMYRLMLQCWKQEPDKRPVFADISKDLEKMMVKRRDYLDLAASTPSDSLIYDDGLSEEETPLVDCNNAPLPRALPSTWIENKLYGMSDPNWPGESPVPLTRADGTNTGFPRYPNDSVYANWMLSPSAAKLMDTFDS
Sequence of Jak3 (P52333 whole entry): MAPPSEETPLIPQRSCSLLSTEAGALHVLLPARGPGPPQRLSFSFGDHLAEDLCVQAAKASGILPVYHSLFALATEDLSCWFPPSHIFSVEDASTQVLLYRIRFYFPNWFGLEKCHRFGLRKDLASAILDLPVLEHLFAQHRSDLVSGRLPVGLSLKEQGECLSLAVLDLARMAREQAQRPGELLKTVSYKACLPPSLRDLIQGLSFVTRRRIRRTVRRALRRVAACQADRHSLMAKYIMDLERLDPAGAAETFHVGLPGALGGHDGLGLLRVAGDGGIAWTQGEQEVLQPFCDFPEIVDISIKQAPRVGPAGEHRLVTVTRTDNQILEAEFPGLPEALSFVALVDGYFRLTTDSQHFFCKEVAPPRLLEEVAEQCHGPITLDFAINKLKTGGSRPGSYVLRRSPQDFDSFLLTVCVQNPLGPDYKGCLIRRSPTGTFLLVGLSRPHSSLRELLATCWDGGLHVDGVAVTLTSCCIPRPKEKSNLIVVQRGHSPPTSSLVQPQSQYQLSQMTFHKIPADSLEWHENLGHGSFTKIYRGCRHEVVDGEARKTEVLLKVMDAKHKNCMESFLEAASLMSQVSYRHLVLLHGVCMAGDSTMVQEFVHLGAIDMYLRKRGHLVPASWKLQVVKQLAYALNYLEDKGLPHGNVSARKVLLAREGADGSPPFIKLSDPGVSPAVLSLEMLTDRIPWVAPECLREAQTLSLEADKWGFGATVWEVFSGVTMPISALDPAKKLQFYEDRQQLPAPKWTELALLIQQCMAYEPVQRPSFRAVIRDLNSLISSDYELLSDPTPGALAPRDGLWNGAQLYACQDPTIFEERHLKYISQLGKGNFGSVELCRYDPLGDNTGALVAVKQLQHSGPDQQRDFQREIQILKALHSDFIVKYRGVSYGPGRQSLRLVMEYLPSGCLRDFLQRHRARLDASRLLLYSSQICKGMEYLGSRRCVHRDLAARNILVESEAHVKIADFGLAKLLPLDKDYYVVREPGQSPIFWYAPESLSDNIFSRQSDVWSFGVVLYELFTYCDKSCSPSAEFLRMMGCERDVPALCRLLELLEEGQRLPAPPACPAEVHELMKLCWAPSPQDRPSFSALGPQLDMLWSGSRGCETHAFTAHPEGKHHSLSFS
Sequence of c-Met (P08581 25-1390): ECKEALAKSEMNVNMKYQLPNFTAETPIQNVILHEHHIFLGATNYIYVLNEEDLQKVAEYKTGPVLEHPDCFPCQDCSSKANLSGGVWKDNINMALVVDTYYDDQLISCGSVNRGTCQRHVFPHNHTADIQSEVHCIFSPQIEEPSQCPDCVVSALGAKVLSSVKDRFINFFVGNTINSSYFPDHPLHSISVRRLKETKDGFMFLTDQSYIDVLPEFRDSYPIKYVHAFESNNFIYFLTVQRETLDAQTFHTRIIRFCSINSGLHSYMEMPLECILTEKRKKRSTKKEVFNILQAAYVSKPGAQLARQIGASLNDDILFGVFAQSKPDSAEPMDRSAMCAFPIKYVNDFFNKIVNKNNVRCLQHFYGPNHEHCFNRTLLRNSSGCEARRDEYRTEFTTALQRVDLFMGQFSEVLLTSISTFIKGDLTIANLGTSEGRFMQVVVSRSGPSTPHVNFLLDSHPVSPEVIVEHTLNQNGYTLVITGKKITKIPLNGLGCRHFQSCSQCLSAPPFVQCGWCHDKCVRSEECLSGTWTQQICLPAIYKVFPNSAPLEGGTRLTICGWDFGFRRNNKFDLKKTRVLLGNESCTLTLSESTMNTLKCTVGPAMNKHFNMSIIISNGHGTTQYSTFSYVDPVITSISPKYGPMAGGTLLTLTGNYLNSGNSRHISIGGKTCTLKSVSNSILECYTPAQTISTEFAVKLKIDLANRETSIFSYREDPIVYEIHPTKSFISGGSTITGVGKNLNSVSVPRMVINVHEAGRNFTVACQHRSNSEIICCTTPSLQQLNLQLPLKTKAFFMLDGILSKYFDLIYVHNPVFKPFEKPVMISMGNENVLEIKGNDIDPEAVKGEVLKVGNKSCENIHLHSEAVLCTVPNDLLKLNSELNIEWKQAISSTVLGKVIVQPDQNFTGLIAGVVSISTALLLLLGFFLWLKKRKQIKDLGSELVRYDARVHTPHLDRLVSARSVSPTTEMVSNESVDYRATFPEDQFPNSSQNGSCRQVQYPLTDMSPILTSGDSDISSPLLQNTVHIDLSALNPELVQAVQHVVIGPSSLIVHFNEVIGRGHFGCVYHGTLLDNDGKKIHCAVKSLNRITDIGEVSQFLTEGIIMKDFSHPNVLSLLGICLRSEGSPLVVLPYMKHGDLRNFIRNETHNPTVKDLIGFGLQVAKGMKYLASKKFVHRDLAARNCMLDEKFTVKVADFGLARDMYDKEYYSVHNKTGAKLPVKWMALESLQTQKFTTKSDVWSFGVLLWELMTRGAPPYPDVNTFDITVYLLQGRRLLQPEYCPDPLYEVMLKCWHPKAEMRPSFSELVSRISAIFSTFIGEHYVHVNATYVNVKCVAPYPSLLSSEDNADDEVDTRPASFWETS

By IC50 is commonly meant the point on the concentration scale where inhibition reaches its midpoint. For `Cc1ccnc(Nc2cccc(-c3cnc(N4CCNC(=O)C45CC5)o3)c2)n1` [Compound 001, 4-{5-[3-(4-Methyl-pyrimidin-2-ylamino)-phenyl]-oxazol-2-yl}-4,7-diaza-spiro[2.5]octan-8-one], the “TNFα Cytokine Release (% relative to control Ag + SCF)” value was determined as 95% with TNFα (Ag + SCF + 0.01 μM of compound), 32% with TNFα (Ag + SCF + 0.1 μM of compound) and 2% in the data set with TNFα (Ag + SCF + 1 μM of compound). Also, the “TNFα Cytokine Release (Relative Fluorescence Units)” value in the data set with TNFα (Ag + SCF + 0.01 μM of compound) is on record as 468 Relative Fluorescence Units; in the data set with TNFα (Ag + SCF + 0.1 μM of compound) it was 158 Relative Fluorescence Units; in the data set on TNFα (Ag + SCF + 1 μM of compound), 9.5 Relative Fluorescence Units. Further, the IC50 is approximately 0.05 µM in the data set with TNFα (Mus musculus, BMMC, Ag + SCF stimulated BMMCs); 10 µM at c-Ret WT; 20 µM against Jak3; 0.9 µM on Jak2 (read-out: Jak2 IC50); 0.92 µM on Jak2 (read-out: Kinase activity profile IC50 JAK 2); 10 µM at c-Met. The molecule further returned an IC50 against BCR-ABL of 10 µM. Besides, in data set [1], the “ROS production, activity relative to doxorubicine (100%), Rat-CM” value amounted to 0%. Moreover, the results for the MPO activity in the data set on Myeloperoxidase (MPO) (KBxN + 15 mg/kg b.i.d.) and with Myeloperoxidase (MPO) (KBxN + 50 mg/kg b.i.d.) were 1.031 ± 0.24 U/ml and 0.348 ± 0.08 U/ml, respectively.
